The results in this text go back to patent US20260021196A1, “HOMOGENEOUS ANTIBODY-CONJUGATES WITH HIGH PAYLOAD LOADING” (SYNAFFIX B.V., priority 2023, published 2026).

pIC50: −log10 of the molar value.

Holding throughout (type): cell-based
One experiment relates to NCI-N87 (HER2 3+) cells. Description: In vitro cytotoxicity, resazurin cell viability (Examples 131-133). Particulars: Homo sapiens, NCI-N87, 120 h; Table 8 / FIG. 22A, DAR8 ADCs and free payloads, 5 days incubation. Here is the method:
(§1) The cells were incubated for 5 days in a humidified atmosphere at 37° C. and 5% CO2. […] After approximately 4 hours in a humidified atmosphere at 37° C. and 5% CO2 the fluorescence was detected with a fluorescence plate reader (Infinite® M1000 Tecan) at 560 nm excitation and 590 nm emission. The relative fluorescent units (RFU) were normalized to cell viability percentage by setting wells without cells at 0% viability and wells with untreated cells at 100% viability (see FIGS. 22A-22C).
(§2) After approximately 4 hours in a humidified atmosphere at 37° C. and 5% CO2 the fluorescence was detected with a fluorescence plate reader (Infinite® M1000 Tecan) at 560 nm excitation and 590 nm emission. The relative fluorescent units (RFU) were normalized to cell viability percentage by setting wells without cells at 0% viability and wells with untreated cells at 100% viability (see FIGS. 23A-23B).
(§3) The cells were incubated for 5 days in a humidified atmosphere at 37° C. and 5% CO2. […] After approximately 4 hours in a humidified atmosphere at 37° C. and 5% CO2 the fluorescence was detected with a fluorescence plate reader (Infinite® M1000 Tecan) at 560 nm excitation and 590 nm emission. The relative fluorescent units (RFU) were normalized to cell viability percentage by setting wells without cells at 0% viability and wells with untreated cells at 100% viability (see FIGS. 24A-24B).
Background: The colour change of resazurin is a common sign of viable cells or microbes.

A further experiment deals with BT-474 cells. Briefly: In vitro cytotoxicity (Example 131). The conditions noted are these: Homo sapiens, Table 8 / FIG. 22B, DAR8 ADCs and free payloads. Here is the method: as §1
The next experiment deals with MDA-MB-231 (HER2−) cells. Description: In vitro cytotoxicity, negative control cell line (Examples 131-133). Particulars: Homo sapiens, MDA-MB-231, 120 h, Table 8 / FIG. 22C, 5 days incubation, read-out: IC50 (MDA-MB231 cells). Here is the method:
as §1, §2, §3

For the compound `CO[C@@]12[C@H](COC(N)=O)C3=C(C(=O)C(C)=C(N)C3=O)N1C[C@@H]1N[C@@H]12` [Mitomycin (free payload), Mitomycin C], the pIC50 (usually the negative decadic logarithm of the IC50, by convention in mol/L) in the experiment on NCI-N87 (HER2 3+) cells was 7.03; in the experiment with BT-474 cells, 6.04; with MDA-MB-231 (HER2−) cells it was < 7.00.
